Experimental data published in patent US20120059162A1, “FUSED IMIDAZOLE DERIVATIVE HAVING TTK INHIBITORY ACTION” (Oncotherapy Science, Inc., priority 2009, published 2012).
Read-outs that look alike come from different tables or passages of the source.

What was measured:
TTK = molecular target: T1, TTK (Homo sapiens, UniProt P33981); assay: TTK assay: screening of TTK kinase activity suppressing action using p38 MAPK peptide; assay type: biochemical; conditions: read-out: TTK IC50
T1 sequence (P33981 1-857): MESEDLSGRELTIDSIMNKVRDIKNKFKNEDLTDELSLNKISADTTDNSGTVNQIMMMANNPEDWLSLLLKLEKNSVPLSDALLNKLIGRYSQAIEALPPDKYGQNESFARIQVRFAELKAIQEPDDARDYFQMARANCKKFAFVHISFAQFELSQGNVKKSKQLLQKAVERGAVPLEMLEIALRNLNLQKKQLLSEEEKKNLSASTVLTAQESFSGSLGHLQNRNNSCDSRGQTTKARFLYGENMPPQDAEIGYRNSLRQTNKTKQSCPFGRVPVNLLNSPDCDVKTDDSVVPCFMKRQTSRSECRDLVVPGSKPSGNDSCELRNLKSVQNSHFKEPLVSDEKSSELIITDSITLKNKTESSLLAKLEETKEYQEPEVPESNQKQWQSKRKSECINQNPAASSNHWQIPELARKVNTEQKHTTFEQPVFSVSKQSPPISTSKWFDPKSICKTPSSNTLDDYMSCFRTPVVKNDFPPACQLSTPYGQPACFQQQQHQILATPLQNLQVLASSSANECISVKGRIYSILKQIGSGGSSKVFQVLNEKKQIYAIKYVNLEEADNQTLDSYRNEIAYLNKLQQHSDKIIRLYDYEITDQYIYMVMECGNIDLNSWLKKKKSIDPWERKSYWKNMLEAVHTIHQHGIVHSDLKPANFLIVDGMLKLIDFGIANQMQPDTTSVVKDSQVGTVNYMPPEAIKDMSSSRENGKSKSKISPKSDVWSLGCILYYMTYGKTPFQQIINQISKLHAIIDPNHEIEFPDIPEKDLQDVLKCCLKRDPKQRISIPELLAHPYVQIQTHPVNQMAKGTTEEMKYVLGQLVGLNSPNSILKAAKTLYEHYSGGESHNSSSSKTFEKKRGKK
Summary of the method: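 TTK (4 μg/ml in enzyme solution) mixed with p38 MAPK peptide and ATP (each 60 μM in substrate solution) in Tris-HCl pH 7.5 with MgCl2, DTT, Na3VO4, β-glycerophosphate, BSA. Reaction aliquot captured on NeutrAvidin plate, detected with Eu-labelled anti-mouse IgG by time-resolved fluorescence; inhibition relative to no-compound signal.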

A549 = A549 assay: screening of cancer cell growth inhibiting compound; assay type: cell-based; conditions: Homo sapiens, A549 cells, read-out: A549 IC50
Summary of the method: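 A549 cells (1×10^4/ml) in D-MEM with 10% FBS were pre-incubated one day at 37 °C, then exposed to compound dilutions for three further days. Viable cell number read by WST-8 (1–4 hours), absorbance 450 nm (reference 620 nm); inhibition calculated relative to untreated wells.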

| SMILES | IC50 (TTK) [nM] | IC50 (A549; values given as IC50 intervals) [nM] | IC50 (TTK; p38 MAPK peptide substrate) [nM] | IC50 (A549; 72 h, three days, WST-8) [nM] |
| --- | --- | --- | --- | --- |
| O=C(NC1CC1)c1ccc(-c2cnc3c(NCC4CCOCC4)cc(OC45CC6CC(CC(C6)C4)C5)nn23)cc1 [Example 2-193] | 6 | 50 to 500 | – | – |
| CCC(C)CNc1cc(NCC2CCOCC2)c2ncc(-c3ccc(C(=O)NC4CC4)cc3)n2n1 (stereo not shown) [Example 2-59] | – | – | 5.2 | 50 to 500 |
| CCC(C)Nc1cc(NC2CCCCC2)nn2c(-c3ccc(C(=O)NC4CC4)cc3)cnc12 (stereo not shown) [Example 2-143] | – | – | 19.8 | 500 to 1000 |
| O=C(NC1CC1)c1ccc(-c2cnc3c(NCC4CCCC4)cc(NC4CCCCC4)nn23)cc1 [Example 2-129] | – | – | 6.7 | 50 to 500 |
| CC1(Oc2cc(NCC3CCOCC3)c3ncc(-c4ccc(C(=O)NC5CC5)cc4)n3n2)CCCCC1 [Example 2-171, N-Cyclopropyl-4-(6-(1-methylcyclohexyloxy)-8-((tetrahydro-2H-pyran-4-yl)methylamino)imidazo[1,2-b]pyridazin-3-yl)benzamide] | 3.5 | 50 to 500 | – | – |
| O=C(NC1CC1)c1ccc(-c2cnc3c(NCC4CCCO4)cc(NC4CCCCC4)nn23)cc1 (stereo not shown) [Example 2-167] | 3.9 | 50 to 500 | – | – |
| CC(C)Oc1cc(NCC2CCOCC2)c2ncc(-c3ccc(C(=O)NC4CC4)cc3)n2n1 [Example 2-178] | 7.1 | 50 to 500 | – | – |
| CC(=O)N1CC=C(c2cc(NCC3CCOCC3)c3ncc(-c4ccc(C(=O)NC5CC5)cc4)n3n2)CC1 [Example 2-213] | 12 | 50 to 500 | – | – |
| COC(C)CNc1cc(NC2CCCCC2)nn2c(-c3ccc(C(=O)NC4CC4)cc3)cnc12 (stereo not shown) [Example 2-166] | – | – | 4.5 | 50 to 500 |
| O=C(NC1CC1)c1ccc(-c2cnc3c(NCC4CCOCC4)cc(OC4CCCC4)nn23)cc1 [Example 2-173] | 5.4 | 50 to 500 | – | – |
| O=C(NC1CC1)c1ccc(-c2cnc3c(NCC4CCOCC4)cc(CC4CCCC4)nn23)cc1 [Example 2-210] | 20.3 | 1000 to 10000 | – | – |
| CC(Oc1cc(NCC2CCOCC2)c2ncc(-c3ccc(C(=O)NC4CC4)cc3)n2n1)C(F)(F)F (stereo not shown) [Example 2-184] | 5.6 | 50 to 500 | – | – |
| CC1(Nc2cc(NCC3CCOCC3)c3ncc(-c4ccc(C(=O)NC5CC5)cc4)n3n2)CCCCC1 [Example 2-74] | – | – | 2.6 | ≤ 50 |
| NC1CCCCC1Oc1cc(NCC2CCOCC2)c2ncc(-c3ccc(C(=O)NC4CC4)cc3)n2n1 (stereo not shown) [Example 2-189] | 8.6 | 500 to 1000 | – | – |
| O=C(NC1CC1)c1ccc(-c2cnc3c(NCC4CCOCC4)cc(NC4CCCC4)nn23)cc1F [Example 2-228] | 3.6 | 50 to 500 | – | – |
| CN1CCC(CNc2cc(NC3CCCCC3)nn3c(-c4ccc(C(=O)NC5CC5)cc4)cnc23)CC1 [Example 2-126] | – | – | 23.6 | 50 to 500 |
| O=C(NC1CC1)c1ccc(-c2cnc3c(NCC4CCOCC4)c(F)c(OC4CCCC4)nn23)cc1 [Example 2-217] | 13.9 | 1000 to 10000 | – | – |
| O=C(NC1CC1)c1ccc(-c2cnc3c(NCC4CCOCC4)cc(C=C4CCCCC4)nn23)cc1 [Example 2-207] | 5.7 | 500 to 1000 | – | – |
| O=C(NC1CC1)c1ccc(-c2cnc3c(NCC4CCOCC4)cc(N4CCCCS4(=O)=O)nn23)cc1 [Example 2-40] | – | – | 7.5 | 50 to 500 |
| CC(C)(C)Oc1cc(NCC2CCOCC2)c2ncc(-c3ccc(C(=O)NC4CC4)cc3)n2n1 [Example 2-182] | 8.4 | 50 to 500 | – | – |
| CC(=O)N1CCC(CNc2cc(NC3CCCCC3)nn3c(-c4ccc(C(=O)NC5CC5)cc4)cnc23)CC1 [Example 2-127] | – | – | 5 | 50 to 500 |
| O=C(NC1CC1)c1ccc(-c2cnc3c(NCC4CCOCC4)cc(C=C4CCCC4)nn23)cc1 [Example 2-209] | 8.2 | 50 to 500 | – | – |

Other lines, results leading:

| IC50 (TTK) [nM] | IC50 (A549; values given as IC50 intervals) [nM] | IC50 (TTK; p38 MAPK peptide substrate) [nM] | IC50 (A549; 72 h, three days, WST-8) [nM] | SMILES |
| --- | --- | --- | --- | --- |
| 23.1 | 1000 to 10000 | – | – | O=C(NC1CC1)c1ccc(-c2cnc3c(NCC4CCOCC4)cc(C4CCNCC4)nn23)cc1 [Example 2-212] |
| – | – | 16.8 | 50 to 500 | N#Cc1ccc(-c2cn3c(-c4ccc(C(=O)NC5CC5)cc4)cnc3c(NCC3COCCO3)n2)cc1 (stereo not shown) [Example 1-222] |
| – | – | 14.4 | 50 to 500 | N#Cc1ccc(-c2cn3c(-c4ccc(C(=O)NC5CC5)cc4)cnc3c(NCCCO)n2)cc1 [Example 1-218] |
| – | – | 2.7 | 50 to 500 | O=C(NC1CC1)c1ccc(-c2cnc3c(NCC4CCOCC4)cc(Oc4ccccc4Cl)nn23)cc1 [Example 2-90, 4-(6-(2-Chlorophenoxy)-8-((tetrahydro-2H-pyran-4-yl)methylamino)imidazo[1,2-b]pyridazin-3-yl)-N-cyclopropylbenzamide] |
| – | – | 3.6 | 50 to 500 | CC(CNc1cc(NC2CCCCC2)nn2c(-c3ccc(C(=O)NC4CC4)cc3)cnc12)C(F)(F)F (stereo not shown) [Example 2-162] |
| – | – | 34.4 | 50 to 500 | Cc1cccc(C)c1Oc1cc(NCC2CCOCC2)c2ncc(-c3ccc(C(=O)NC4CC4)cc3)n2n1 [Example 2-107] |
| – | – | 19.7 | 500 to 1000 | Cc1nc(C)c(-c2cc(NCC3CCOCC3)c3ncc(-c4ccc(C(=O)NC5CC5)cc4)n3n2)s1 [Example 2-9] |
| – | – | 6.7 | 50 to 500 | N#Cc1ccc(-c2cn3c(-c4ccc(C(=O)NC5CC5)cc4)cnc3c(NCCSCCO)n2)cc1 [Example 1-214] |
| – | – | 2.5 | 50 to 500 | Cc1ccccc1Oc1cc(NCC2CCOCC2)c2ncc(-c3ccc(C(=O)NC4CC4)cc3)n2n1 [Example 2-101] |
| – | – | 5.5 | 50 to 500 | COCCCCNc1cc(NC2CCCCC2)nn2c(-c3ccc(C(=O)NC4CC4)cc3)cnc12 [Example 2-138] |
| – | – | 5.4 | 50 to 500 | Cn1cnc(CNc2cc(NC3CCCCC3)nn3c(-c4ccc(C(=O)NC5CC5)cc4)cnc23)c1 [Example 2-149] |
| – | – | 7.5 | 50 to 500 | O=C(NC1CC1)c1ccc(-c2cnc3c(NCC4CCOCC4)cc(Oc4ccccc4C(F)(F)F)nn23)cc1 [Example 2-96] |
| – | – | 3.3 | ≤ 50 | Nc1ccccc1Oc1cc(NCC2CCOCC2)c2ncc(-c3ccc(C(=O)NC4CC4)cc3)n2n1 [Example 2-97] |
| – | – | 7 | 50 to 500 | CCCNc1cc(NC2CCCCC2)nn2c(-c3ccc(C(=O)NC4CC4)cc3)cnc12 [Example 2-141] |
| – | – | 12.8 | 50 to 500 | CC(C)(O)CNc1nc(-c2ccc(C#N)cc2)cn2c(-c3ccc(C(=O)NC4CC4)cc3)cnc12 [Example 1-235] |
| – | – | 3.8 | 50 to 500 | Cn1cc(CNc2cc(NC3CCCCC3)nn3c(-c4ccc(C(=O)NC5CC5)cc4)cnc23)cn1 [Example 2-150] |
| – | – | 9.5 | 50 to 500 | N#Cc1ccc(-c2cn3c(-c4ccc(C(=O)NC5CC5)cc4)cnc3c(NCC3CC3)n2)cc1 [Example 1-219] |
| 14.3 | 50 to 500 | – | – | N#Cc1ccc(Oc2cc(NCC3CCOCC3)c3ncc(-c4ccc(C(=O)NC5CC5)cc4)n3n2)cc1 [Example 2-177] |
| – | – | 3.6 | 50 to 500 | O=C(NC1CC1)c1ccc(-c2cnc3c(NCc4ccco4)cc(NC4CCCCC4)nn23)cc1 [Example 2-152] |
